The text below walks through data of ChEMBL document CHEMBL4130358, “Chemoselective synthesis and biological evaluation of arylated 2-(Trifluoromethyl) quinolines as nucleotide pyrophosphatase (NPPs) inhibitors” (Eur J Med Chem, 2017).

The target of assay [1] is T1, Ectonucleotide pyrophosphatase/phosphodiesterase family member 1 (Homo sapiens, UniProt P22413).
T1 sequence (P22413 whole entry): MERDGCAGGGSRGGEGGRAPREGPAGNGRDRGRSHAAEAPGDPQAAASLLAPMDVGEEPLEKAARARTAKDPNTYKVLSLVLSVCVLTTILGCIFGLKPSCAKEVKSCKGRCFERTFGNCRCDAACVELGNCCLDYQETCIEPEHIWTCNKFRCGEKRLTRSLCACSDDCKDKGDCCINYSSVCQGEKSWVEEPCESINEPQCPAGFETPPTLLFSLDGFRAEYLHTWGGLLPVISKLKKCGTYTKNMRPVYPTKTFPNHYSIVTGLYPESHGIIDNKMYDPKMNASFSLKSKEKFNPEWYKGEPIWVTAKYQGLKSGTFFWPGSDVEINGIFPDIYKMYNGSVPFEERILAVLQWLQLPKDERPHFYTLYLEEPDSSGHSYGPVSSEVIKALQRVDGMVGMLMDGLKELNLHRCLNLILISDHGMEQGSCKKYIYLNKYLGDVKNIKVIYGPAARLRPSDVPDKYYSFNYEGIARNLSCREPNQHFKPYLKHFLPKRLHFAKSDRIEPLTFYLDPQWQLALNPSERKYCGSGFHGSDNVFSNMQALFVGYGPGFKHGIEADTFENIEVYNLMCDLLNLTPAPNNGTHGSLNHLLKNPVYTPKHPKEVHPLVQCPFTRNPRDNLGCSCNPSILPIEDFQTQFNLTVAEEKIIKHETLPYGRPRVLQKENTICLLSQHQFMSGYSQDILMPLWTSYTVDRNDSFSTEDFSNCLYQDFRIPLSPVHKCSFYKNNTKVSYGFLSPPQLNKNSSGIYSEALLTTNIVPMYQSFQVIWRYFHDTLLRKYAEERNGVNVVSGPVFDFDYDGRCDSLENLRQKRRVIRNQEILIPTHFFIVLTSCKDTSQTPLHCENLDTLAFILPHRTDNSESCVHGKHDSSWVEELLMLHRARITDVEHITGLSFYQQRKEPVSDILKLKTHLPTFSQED
Kind of assay: Inhibition of human full length NPP1 expressed in African green monkey COS7 cell membrane fraction using p-nitrophenyl-5'-thymidine monophosphate as substrate preincubated for 10 mins followed by substrate addition measured after 30 mins.

Assay [2] concerns the target T2, Ectonucleotide pyrophosphatase/phosphodiesterase family member 3 (Homo sapiens, UniProt O14638).
T2 sequence (O14638 whole entry): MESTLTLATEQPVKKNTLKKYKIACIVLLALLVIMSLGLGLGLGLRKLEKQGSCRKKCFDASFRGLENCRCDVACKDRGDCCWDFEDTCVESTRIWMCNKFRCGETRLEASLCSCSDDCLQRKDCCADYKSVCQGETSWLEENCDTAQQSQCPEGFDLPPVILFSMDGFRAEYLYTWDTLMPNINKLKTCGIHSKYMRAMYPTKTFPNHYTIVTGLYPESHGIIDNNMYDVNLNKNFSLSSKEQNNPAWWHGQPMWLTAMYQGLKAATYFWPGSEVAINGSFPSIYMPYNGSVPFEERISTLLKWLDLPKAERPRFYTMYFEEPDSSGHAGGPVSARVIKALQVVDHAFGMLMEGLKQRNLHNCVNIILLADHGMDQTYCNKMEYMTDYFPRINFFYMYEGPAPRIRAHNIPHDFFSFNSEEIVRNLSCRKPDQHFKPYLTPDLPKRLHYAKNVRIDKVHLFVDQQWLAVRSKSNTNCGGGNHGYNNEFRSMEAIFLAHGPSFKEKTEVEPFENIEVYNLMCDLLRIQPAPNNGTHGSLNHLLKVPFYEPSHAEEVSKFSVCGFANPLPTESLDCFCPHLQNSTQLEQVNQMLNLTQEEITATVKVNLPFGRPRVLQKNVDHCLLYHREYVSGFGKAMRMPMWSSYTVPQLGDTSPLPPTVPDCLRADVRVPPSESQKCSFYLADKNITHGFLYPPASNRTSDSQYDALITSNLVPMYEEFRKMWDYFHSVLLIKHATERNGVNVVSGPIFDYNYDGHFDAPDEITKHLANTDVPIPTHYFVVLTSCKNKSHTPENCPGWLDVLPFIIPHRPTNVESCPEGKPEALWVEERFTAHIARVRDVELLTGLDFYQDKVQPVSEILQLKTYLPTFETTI
The experiment in a line: Inhibition of human full length NPP3 expressed in African green monkey COS7 cell membrane fraction using p-nitrophenyl-5'-thymidine monophosphate as substrate preincubated for 10 mins followed by substrate addition measured after 30 mins.

Assay [3] concerns the target T3, Ectonucleoside triphosphate diphosphohydrolase 3 (Homo sapiens, UniProt O75355).
T3 sequence (O75355 whole entry): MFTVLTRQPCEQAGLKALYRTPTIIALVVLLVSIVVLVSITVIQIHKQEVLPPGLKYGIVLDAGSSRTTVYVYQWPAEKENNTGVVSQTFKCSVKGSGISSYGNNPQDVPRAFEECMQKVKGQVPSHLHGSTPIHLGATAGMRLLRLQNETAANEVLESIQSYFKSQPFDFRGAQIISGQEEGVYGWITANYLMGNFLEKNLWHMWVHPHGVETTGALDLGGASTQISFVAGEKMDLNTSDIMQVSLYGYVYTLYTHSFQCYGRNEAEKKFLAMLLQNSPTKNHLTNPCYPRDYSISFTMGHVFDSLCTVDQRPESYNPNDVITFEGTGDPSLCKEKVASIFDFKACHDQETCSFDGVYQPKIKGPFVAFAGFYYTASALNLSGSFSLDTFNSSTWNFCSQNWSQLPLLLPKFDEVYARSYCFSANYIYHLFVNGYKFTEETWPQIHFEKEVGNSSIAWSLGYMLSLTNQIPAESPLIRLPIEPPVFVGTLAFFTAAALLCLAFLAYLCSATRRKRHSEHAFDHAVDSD
The experiment in a line: Inhibition of human NTPDase3 expressed in African green monkey COS7 cell membrane fraction using ATP as substrate preincubated for 10 mins followed by substrate addition measured after 10 mins by malachite green reagent-based assay.

Assay [4] has as its target T4, Ectonucleoside triphosphate diphosphohydrolase 8 (Homo sapiens, UniProt Q5MY95).
T4 sequence (Q5MY95 whole entry): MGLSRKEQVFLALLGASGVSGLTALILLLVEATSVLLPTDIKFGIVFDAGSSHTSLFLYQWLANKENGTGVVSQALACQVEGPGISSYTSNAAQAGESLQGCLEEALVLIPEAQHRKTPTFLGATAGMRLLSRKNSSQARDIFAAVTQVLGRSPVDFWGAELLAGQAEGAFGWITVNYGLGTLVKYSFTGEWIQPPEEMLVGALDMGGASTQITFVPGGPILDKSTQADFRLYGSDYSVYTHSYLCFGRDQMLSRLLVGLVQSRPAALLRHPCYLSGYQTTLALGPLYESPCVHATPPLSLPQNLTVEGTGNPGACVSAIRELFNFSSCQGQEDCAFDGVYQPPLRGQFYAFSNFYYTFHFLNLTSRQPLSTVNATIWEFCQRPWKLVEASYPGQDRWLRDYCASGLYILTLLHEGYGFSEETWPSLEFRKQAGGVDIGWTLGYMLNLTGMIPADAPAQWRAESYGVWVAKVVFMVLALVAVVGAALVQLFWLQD
Kind of assay: Inhibition of human NTPDase8 expressed in African green monkey COS7 cell membrane fraction using ATP as substrate preincubated for 10 mins followed by substrate addition measured after 10 mins by malachite green reagent-based assay.

Assay [5] addresses T5, Ectonucleoside triphosphate diphosphohydrolase 2 (Homo sapiens, UniProt Q9Y5L3).
T5 sequence (Q9Y5L3 whole entry): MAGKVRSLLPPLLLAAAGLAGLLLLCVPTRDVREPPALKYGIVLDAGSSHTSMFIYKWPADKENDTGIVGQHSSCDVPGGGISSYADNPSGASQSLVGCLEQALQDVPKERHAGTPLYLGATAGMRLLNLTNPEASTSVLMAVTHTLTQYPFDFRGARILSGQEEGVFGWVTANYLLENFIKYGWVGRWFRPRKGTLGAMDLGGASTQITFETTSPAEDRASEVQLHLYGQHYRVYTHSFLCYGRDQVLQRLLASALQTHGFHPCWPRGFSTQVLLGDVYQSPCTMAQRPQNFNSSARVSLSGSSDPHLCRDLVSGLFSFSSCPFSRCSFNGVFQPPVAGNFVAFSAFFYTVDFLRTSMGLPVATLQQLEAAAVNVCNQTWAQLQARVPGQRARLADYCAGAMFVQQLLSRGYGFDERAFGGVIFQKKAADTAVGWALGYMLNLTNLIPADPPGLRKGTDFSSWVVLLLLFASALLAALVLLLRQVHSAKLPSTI
The experiment in a line: Inhibition of human NTPDase2 expressed in African green monkey COS7 cell membrane fraction using ATP as substrate preincubated for 10 mins followed by substrate addition measured after 10 mins by malachite green reagent-based assay.

Assay [6] has as its target T6, Ectonucleoside triphosphate diphosphohydrolase 1 (Homo sapiens, UniProt P49961).
T6 sequence (P49961 whole entry): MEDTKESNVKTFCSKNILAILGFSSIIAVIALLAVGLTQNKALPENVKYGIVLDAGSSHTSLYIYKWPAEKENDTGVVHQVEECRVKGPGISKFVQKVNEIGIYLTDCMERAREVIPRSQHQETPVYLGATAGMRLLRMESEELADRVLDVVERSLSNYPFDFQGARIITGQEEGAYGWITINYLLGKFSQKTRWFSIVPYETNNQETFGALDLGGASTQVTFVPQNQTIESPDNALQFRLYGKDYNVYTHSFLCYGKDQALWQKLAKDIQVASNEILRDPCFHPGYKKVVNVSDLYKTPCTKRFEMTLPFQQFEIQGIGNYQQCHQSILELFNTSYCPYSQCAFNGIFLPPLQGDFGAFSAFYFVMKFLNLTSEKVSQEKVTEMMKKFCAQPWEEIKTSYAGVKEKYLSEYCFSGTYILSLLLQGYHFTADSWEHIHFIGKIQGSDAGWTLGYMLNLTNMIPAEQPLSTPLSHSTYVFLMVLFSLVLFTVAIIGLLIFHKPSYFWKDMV
The experiment in a line: Inhibition of human NTPDase1 expressed in African green monkey COS7 cell membrane fraction using ATP as substrate preincubated for 10 mins followed by substrate addition measured after 10 mins by malachite green reagent-based assay.

A word on the IC50: it is the concentration that gives 50% inhibition. Consider `FC(F)(F)c1nc2c(Br)cccc2c(Cl)c1Br`, for which the IC50 in assay [1] is 7.65 µM; in assay [2], 0.39 µM.
Consider `Cc1cccc(-c2c(C(F)(F)F)nc3c(-c4cccc(C)c4)cccc3c2-c2cccc(C)c2)c1`, for which the concentration for half-maximal inhibition (IC50) in assay [3] is above 300 µM; in assay [4], above 300 µM; in assay [1], 20.7 µM; in assay [5] it was above 300 µM; in assay [2] it was above 100 µM; in assay [6], above 300 µM.
As for `FC(F)(F)c1nc2c(-c3ccccc3)cccc2c(Cl)c1-c1ccccc1`, the concentration for half-maximal inhibition (IC50) in assay [3] was above 300 µM; in assay [4] it was above 300 µM; in assay [1] it was 2.81 µM; in assay [5] it was above 300 µM; in assay [2], above 100 µM; in assay [6], above 300 µM.
Turning to `COc1ccc(OC)c(-c2cccc3c(Cl)c(Br)c(C(F)(F)F)nc23)c1`, the values for the IC50 in assay [1] and in assay [2] were 0.25 µM and 0.36 µM, respectively.
The like results for `Fc1ccc(-c2c(C(F)(F)F)nc3c(-c4ccc(F)cc4)cccc3c2-c2ccc(F)cc2)cc1` were, in that order, 0.51 µM and above 100 µM.
Take `N#Cc1cccc(-c2cccc3c(Cl)c(Br)c(C(F)(F)F)nc23)c1`: the results for the IC50 in assay [1] and in assay [2] were 0.35 µM and above 100 µM, respectively.
As to `FC(F)(F)c1nc2c(-c3ccsc3)cccc2c(Cl)c1Br`, the IC50 was above 300 µM in assay [3]; above 300 µM in assay [4]; 5.76 µM in assay [1]; above 300 µM in assay [5]; above 100 µM in assay [2]; above 300 µM in assay [6].
With `FC(F)(F)c1nc2c(-c3ccccc3)cccc2c(-c2ccccc2)c1-c1ccccc1`, the IC50 in assay [1] is 0.18 µM; in assay [2] it was above 100 µM.
For `FC(F)(F)c1ccc(-c2cccc3c(Cl)c(Br)c(C(F)(F)F)nc23)cc1`, the IC50 in assay [1] was 0.31 µM; in assay [2], above 100 µM.
The like results for `COc1ccc(-c2cccc3c(Cl)c(Br)c(C(F)(F)F)nc23)cc1` were, in that order, 0.39 µM and 1.14 µM.
The like results for `Cc1ccc(-c2c(C(F)(F)F)nc3c(-c4ccc(C)cc4)cccc3c2-c2ccc(C)cc2)cc1` were, in that order, 0.73 µM and above 100 µM.
On to `COc1ccc(-c2c(C(F)(F)F)nc3c(-c4ccc(OC)cc4)cccc3c2-c2ccc(OC)cc2)cc1`, for which the IC50 in assay [3] was above 300 µM; in assay [4], above 300 µM; in assay [1], 9.87 µM; in assay [5] it was above 300 µM; in assay [2] it was above 100 µM; in assay [6], above 300 µM.
As to `O=c1c(Br)c(C(F)(F)F)[nH]c2c(Br)cccc12`, the results for the IC50 in assay [1] and in assay [2] were 0.63 µM and 2.42 µM, respectively.
In the case of `Cc1ccc(C(=O)Nc2ccc(S(=O)(=O)O)c3cc(S(=O)(=O)O)cc(S(=O)(=O)O)c23)cc1NC(=O)c1cccc(NC(=O)Nc2cccc(C(=O)Nc3cc(C(=O)Nc4ccc(S(=O)(=O)O)c5cc(S(=O)(=O)O)cc(S(=O)(=O)O)c45)ccc3C)c2)c1` [SURAMIN], the IC50 in assay [4] was above 100 µM.
